Test system: 596521-263-R-J1-PDC complex spheroid growth
Test: Anticancer human tumor 596521-263-R-J1-PDC patient-derived soft tissue sarcoma cell line growth inhibition [Asc]
Conditions: for IC50: curve of first compound; for viability, T/C: stronger effect = lower value
In short: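 Spheroid model: tumor line + HUVEC + hMSC. Single agents and combinations; top conc. at/near clinical Cmax (10 microM if undetermined), half-log dilutions. DMSO stocks at 800-fold test concentration.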

[1] = second compound 0.00949 µM, first compound 0.0316 µM
[2] = second compound 0.00949 µM, first compound 0.1 µM
[3] = second compound 0.00949 µM, first compound 0.316 µM
[4] = second compound 0.00949 µM, first compound 1 µM
[5] = second compound 0.00949 µM, first compound 3.16 µM
[6] = second compound 0.00949 µM, first compound 10 µM
[7] = second compound 0.03 µM, first compound 0.0316 µM
[8] = second compound 0.03 µM, first compound 0.1 µM
[9] = second compound 0.03 µM, first compound 0.316 µM
[10] = second compound 0.03 µM, first compound 1 µM
[11] = second compound 0.03 µM, first compound 3.16 µM
[12] = second compound 0.03 µM, first compound 10 µM
[13] = second compound 0.0949 µM, first compound 0.0316 µM
[14] = second compound 0.0949 µM, first compound 0.1 µM
[15] = second compound 0.0949 µM, first compound 0.316 µM
[16] = second compound 0.0949 µM, first compound 1 µM
[17] = second compound 0.0949 µM, first compound 3.16 µM
[18] = second compound 0.0949 µM, first compound 10 µM
[19] = second compound 0.3 µM, first compound 0.0316 µM
[20] = second compound 0.3 µM, first compound 0.1 µM
[21] = second compound 0.3 µM, first compound 0.316 µM
[22] = second compound 0.3 µM, first compound 1 µM
[23] = second compound 0.3 µM, first compound 3.16 µM
[24] = second compound 0.3 µM, first compound 10 µM
[25] = second compound 0.949 µM, first compound 0.0316 µM
[26] = second compound 0.949 µM, first compound 0.1 µM
[27] = second compound 0.949 µM, first compound 0.316 µM
[28] = second compound 0.949 µM, first compound 1 µM
[29] = second compound 0.949 µM, first compound 3.16 µM
[30] = second compound 0.949 µM, first compound 10 µM
[31] = second compound 3 µM, first compound 0.0316 µM
[32] = second compound 3 µM, first compound 0.1 µM
[33] = second compound 3 µM, first compound 0.316 µM
[34] = second compound 3 µM, first compound 1 µM
[35] = second compound 3 µM, first compound 3.16 µM
[36] = second compound 3 µM, first compound 10 µM
[37] = second compound 0.00949 µM, first compound 0.00316 µM
[38] = second compound 0.00949 µM, first compound 0.01 µM
[39] = second compound 0.03 µM, first compound 0.00316 µM
[40] = second compound 0.03 µM, first compound 0.01 µM
[41] = second compound 0.0949 µM, first compound 0.00316 µM
[42] = second compound 0.0949 µM, first compound 0.01 µM
[43] = second compound 0.3 µM, first compound 0.00316 µM
[44] = second compound 0.3 µM, first compound 0.01 µM
[45] = second compound 0.949 µM, first compound 0.00316 µM
[46] = second compound 0.949 µM, first compound 0.01 µM
[47] = second compound 3 µM, first compound 0.00316 µM
[48] = second compound 3 µM, first compound 0.01 µM
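Note: spheroids exposed to compounds for 7 days.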

In the case of `C=C(F)C(=O)N1CCN(c2nc(OCC3CCCN3C)nc3c2CCN(c2cccc4cccc(Cl)c24)C3)CC1CC#N` (stereo not drawn) + CCN1C(C(=O)NC23CCC(C(=O)O)(CC2)CC3)C(c2cccc(Cl)c2F)C2(C(=O)Nc3cc(Cl)ccc32)C12CCCCC2, the IC50 (second compound 0.00949 µM) is reported as 5.24 µM, the IC50 (second compound 0.03 µM) is reported as 5.11 µM and the IC50 (second compound 0.0949 µM) is reported as 5.18 µM. It also gave an IC50 (second compound 0.3 µM) of 5.11 µM, an IC50 (second compound 0.949 µM) of 4.73 µM and an IC50 (second compound 3 µM) of 4.53 µM. The viability, T/C [1] was 106%, the viability, T/C [2] was 102% and the viability, T/C [3] was 91.2%. For the same molecule, the viability, T/C [4] was 104%, the viability, T/C [5] was 88.7% and the viability, T/C [6] was 0.73%. The viability, T/C [7] was 101%, the viability, T/C [8] was 90.4% and the viability, T/C [9] was 97.5%. The viability, T/C [10] was 97.3%, the viability, T/C [11] was 85.3% and the viability, T/C [12] was 0.62%. The viability, T/C [13] was 94.3%, the viability, T/C [14] was 96.4% and the viability, T/C [15] was 106%. The viability, T/C [16] was 101%, the viability, T/C [17] was 86.1% and the viability, T/C [18] was 1.83%. It also gave a viability, T/C [19] of 98.7%, a viability, T/C [20] of 107% and a viability, T/C [21] of 101%. For the same molecule, the viability, T/C [22] was 100%, the viability, T/C [23] was 83.6% and the viability, T/C [24] was 2.96%. The viability, T/C [25] was 109%, the viability, T/C [26] was 97.9% and the viability, T/C [27] was 108%. The viability, T/C [28] was 105%, the viability, T/C [29] was 75.3% and the viability, T/C [30] was 2.73%. The viability, T/C [31] was 97%, the viability, T/C [32] was 98.6% and the viability, T/C [33] was 102%. For the same molecule, the viability, T/C [34] was 80.2%, the viability, T/C [35] was 75.5% and the viability, T/C [36] was 2.66%.
In the case of `C=CC(=O)N1CCN(c2nc(=O)n(-c3c(C)ccnc3C(C)C)c3nc(-c4c(O)cccc4F)c(F)cc23)C(C)C1` (stereo not drawn) + CCN1C(C(=O)NC23CCC(C(=O)O)(CC2)CC3)C(c2cccc(Cl)c2F)C2(C(=O)Nc3cc(Cl)ccc32)C12CCCCC2, the IC50 (second compound 0.00949 µM) is reported as > 10 µM, the IC50 (second compound 0.03 µM) is reported as > 10 µM and the IC50 (second compound 0.0949 µM) is reported as > 10 µM. The IC50 (second compound 0.3 µM) was > 10 µM, the IC50 (second compound 0.949 µM) was > 10 µM and the IC50 (second compound 3 µM) was > 10 µM. It also gave a viability, T/C [1] of 102%, a viability, T/C [2] of 101% and a viability, T/C [3] of 123%. The viability, T/C [4] was 114%, the viability, T/C [5] was 113% and the viability, T/C [6] was 70.7%. For the same molecule, the viability, T/C [7] was 108%, the viability, T/C [8] was 99.6% and the viability, T/C [9] was 94.5%. For the same molecule, the viability, T/C [10] was 125%, the viability, T/C [11] was 114% and the viability, T/C [12] was 67.7%. It also gave a viability, T/C [13] of 118%, a viability, T/C [14] of 111% and a viability, T/C [15] of 113%. The viability, T/C [16] was 108%, the viability, T/C [17] was 103% and the viability, T/C [18] was 86.1%. The viability, T/C [19] was 108%, the viability, T/C [20] was 99.2% and the viability, T/C [21] was 106%. It also gave a viability, T/C [22] of 117%, a viability, T/C [23] of 112% and a viability, T/C [24] of 73.7%. It also gave a viability, T/C [25] of 103%, a viability, T/C [26] of 101% and a viability, T/C [27] of 96.2%. The viability, T/C [28] was 113%, the viability, T/C [29] was 111% and the viability, T/C [30] was 80.9%. For the same molecule, the viability, T/C [31] was 86.8%, the viability, T/C [32] was 81.9% and the viability, T/C [33] was 91.6%. It also gave a viability, T/C [34] of 98.2%, a viability, T/C [35] of 89.4% and a viability, T/C [36] of 70.3%.
In the case of `COc1c(OCCCN2CCOCC2)ccc2c3n(c(=NC(=O)c4cnc(N)nc4)nc12)CCN3` + CCN1C(C(=O)NC23CCC(C(=O)O)(CC2)CC3)C(c2cccc(Cl)c2F)C2(C(=O)Nc3cc(Cl)ccc32)C12CCCCC2, the IC50 (second compound 0.00949 µM) is reported as 0.199 µM, the IC50 (second compound 0.03 µM) is reported as 0.182 µM and the IC50 (second compound 0.0949 µM) is reported as 0.159 µM. For the same molecule, the IC50 (second compound 0.3 µM) was 0.212 µM, the IC50 (second compound 0.949 µM) was 0.105 µM and the IC50 (second compound 3 µM) was 0.125 µM. It also gave a viability, T/C [37] of 93.1%, a viability, T/C [38] of 90.5% and a viability, T/C [1] of 70.4%. It also gave a viability, T/C [2] of 67.6%, a viability, T/C [3] of 39.1% and a viability, T/C [4] of 24%. The viability, T/C [39] was 97.5%, the viability, T/C [40] was 96.7% and the viability, T/C [7] was 80%. For the same molecule, the viability, T/C [8] was 59.4%, the viability, T/C [9] was 42% and the viability, T/C [10] was 34.9%. The viability, T/C [41] was 87.7%, the viability, T/C [42] was 96.3% and the viability, T/C [13] was 78.3%. The viability, T/C [14] was 59.1%, the viability, T/C [15] was 37.5% and the viability, T/C [16] was 31.4%. It also gave a viability, T/C [43] of 99.9%, a viability, T/C [44] of 83.8% and a viability, T/C [19] of 79.9%. The viability, T/C [20] was 64.8%, the viability, T/C [21] was 39.9% and the viability, T/C [22] was 29.9%. The viability, T/C [45] was 103%, the viability, T/C [46] was 97.3% and the viability, T/C [25] was 75.3%. For the same molecule, the viability, T/C [26] was 50.9%, the viability, T/C [27] was 36.1% and the viability, T/C [28] was 30.1%. For the same molecule, the viability, T/C [47] was 87.5%, the viability, T/C [48] was 85.4% and the viability, T/C [31] was 78.2%. It also gave a viability, T/C [32] of 52.3%, a viability, T/C [33] of 40.1% and a viability, T/C [34] of 38.7%.
With `NC1CCC(NC2CC2c2ccccc2)CC1` (stereo not drawn) + CCN1C(C(=O)NC23CCC(C(=O)O)(CC2)CC3)C(c2cccc(Cl)c2F)C2(C(=O)Nc3cc(Cl)ccc32)C12CCCCC2 the IC50 (second compound 0.00949 µM) was > 0.1 µM, the IC50 (second compound 0.03 µM) was > 0.1 µM and the IC50 (second compound 0.0949 µM) was > 0.1 µM. The IC50 (second compound 0.3 µM) was > 0.1 µM, the IC50 (second compound 0.949 µM) was > 0.1 µM and the IC50 (second compound 3 µM) was > 0.1 µM. For the same molecule, the viability, T/C (second compound 0.00949 µM, first compound 0.000316 µM) was 98.8%, the viability, T/C (second compound 0.00949 µM, first compound 0.001 µM) was 78.1% and the viability, T/C [37] was 84.2%. It also gave a viability, T/C [38] of 88.9%, a viability, T/C [1] of 83.7% and a viability, T/C [2] of 105%. For the same molecule, the viability, T/C (second compound 0.03 µM, first compound 0.000316 µM) was 84.2%, the viability, T/C (second compound 0.03 µM, first compound 0.001 µM) was 85.3% and the viability, T/C [39] was 89.6%. For the same molecule, the viability, T/C [40] was 87.6%, the viability, T/C [7] was 82.5% and the viability, T/C [8] was 88.7%. The viability, T/C (second compound 0.0949 µM, first compound 0.000316 µM) was 95.3%, the viability, T/C (second compound 0.0949 µM, first compound 0.001 µM) was 87.9% and the viability, T/C [41] was 85%. For the same molecule, the viability, T/C [42] was 84.5%, the viability, T/C [13] was 89.1% and the viability, T/C [14] was 81.4%. It also gave a viability, T/C (second compound 0.3 µM, first compound 0.000316 µM) of 87.7%, a viability, T/C (second compound 0.3 µM, first compound 0.001 µM) of 87.7% and a viability, T/C [43] of 80.7%. For the same molecule, the viability, T/C [44] was 94.1%, the viability, T/C [19] was 85.4% and the viability, T/C [20] was 87.8%. The viability, T/C (second compound 0.949 µM, first compound 0.000316 µM) was 94.7%, the viability, T/C (second compound 0.949 µM, first compound 0.001 µM) was 87.2% and the viability, T/C [45] was 87.9%. It also gave a viability, T/C [46] of 97.3%, a viability, T/C [25] of 92.8% and a viability, T/C [26] of 82.5%. The viability, T/C (second compound 3 µM, first compound 0.000316 µM) was 80.9%, the viability, T/C (second compound 3 µM, first compound 0.001 µM) was 83.2% and the viability, T/C [47] was 85.2%. The viability, T/C [48] was 71%, the viability, T/C [31] was 75.9% and the viability, T/C [32] was 82.7%.

— PubChem BioAssay AID1963449 (Molecular Pharmacology Branch, DTP, NCI, 2024)
